Laboratory results: ChEMBL document CHEMBL1201862, “PubChem BioAssay data set” (2004)
Activity calls are given as the source filed them.

Tests used:
[1] = molecular target: Eukaryotic translation initiation factor 4E (Mus musculus, UniProt P63073); assay: blockers of eIF4G binding by eIF4E – biochemical, TR-FRET, dose response (AID 855); type: functional;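 further: potency for disrupting eIF4E binding to eIF4GI seen as loss of FRET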
[2] = molecular target: T1, Cytochrome P450 3A4 (Homo sapiens, UniProt P08684);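 further: CYP3A4 tested as one member of a cytochrome P450 panel screen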
[3] = blockers of HIV-1 envelope-mediated cell-cell fusion – cherry-pick, dose response (AID 652057); type: functional, cell-based
[4] = blockers of HIV-1 ZM109 envelope-driven cell-cell fusion – HeLa effector, CEM target cells, luciferase, cherry-pick, dose response (AID 652058); type: functional, cell-based;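 further: luciferase signal from HIV-1 Env mediated cell-cell fusion of effector and target cells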
[5] = HIV-1 AD8 envelope cell-cell fusion blockers – cherry-pick, dose response (AID 652062); type: functional, cell-based;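 further: luciferase signal from cell-cell fusion driven by HIV-1 clade B AD8 Env; potency is for inhibitors of fusion seen as a drop in luminescence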
[6] = molecular target: T2, Carboxy-terminal domain RNA polymerase II polypeptide A small phosphatase 1 (Homo sapiens, UniProt Q9GZU7); assay: CTDSP1 inhibitors, concentration-response, biochemical, absorbance readout, ultra-high-throughput screen actives (AID 540297); type: functional
T2 sequence (Q9GZU7 whole entry): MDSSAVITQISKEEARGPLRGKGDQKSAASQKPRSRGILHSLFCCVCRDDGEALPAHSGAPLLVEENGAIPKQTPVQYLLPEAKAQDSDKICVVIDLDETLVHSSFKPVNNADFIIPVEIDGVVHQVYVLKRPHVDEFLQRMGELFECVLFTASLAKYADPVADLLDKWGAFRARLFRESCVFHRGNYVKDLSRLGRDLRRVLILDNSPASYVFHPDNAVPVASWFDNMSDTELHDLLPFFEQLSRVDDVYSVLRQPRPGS

[7] = molecular target: T3, High affinity choline transporter 1 (Homo sapiens, UniProt Q9GZV3); assay: human choline transporter blockers, potency – cell-based, 5-point CRC, membrane potential dye, dose response (AID 504840); type: functional
T3 sequence (Q9GZV3 whole entry): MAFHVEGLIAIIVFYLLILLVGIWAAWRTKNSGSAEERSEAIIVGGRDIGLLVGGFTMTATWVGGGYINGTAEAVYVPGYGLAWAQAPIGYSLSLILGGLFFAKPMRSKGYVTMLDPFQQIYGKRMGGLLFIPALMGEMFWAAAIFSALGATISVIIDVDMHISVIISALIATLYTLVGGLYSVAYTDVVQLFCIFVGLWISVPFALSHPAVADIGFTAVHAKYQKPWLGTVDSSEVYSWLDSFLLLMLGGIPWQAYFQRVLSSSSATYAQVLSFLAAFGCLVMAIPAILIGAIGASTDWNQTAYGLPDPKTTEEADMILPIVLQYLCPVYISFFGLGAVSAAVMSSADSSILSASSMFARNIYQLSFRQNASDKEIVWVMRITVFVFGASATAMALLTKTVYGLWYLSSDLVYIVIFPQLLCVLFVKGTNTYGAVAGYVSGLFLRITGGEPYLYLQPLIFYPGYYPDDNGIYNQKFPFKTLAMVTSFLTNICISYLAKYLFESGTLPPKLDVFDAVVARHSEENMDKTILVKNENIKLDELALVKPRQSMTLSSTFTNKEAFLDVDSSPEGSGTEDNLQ

[8] = molecular target: Estrogen receptor beta (Homo sapiens, UniProt Q92731);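 further: recombinant ER-beta bound to coactivator SRC1 peptide in presence of estradiol agonist; inhibitors block coactivator peptide binding and lower the FRET signal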
[9] = molecular target: T4, Voltage-gated N-type calcium channel alpha-1B subunit/Amyloid beta A4 precursor protein-binding family A member 1 (Homo sapiens, UniProt Q00975+Q02410); type: protein assay
[10] = molecular target: T4, Voltage-gated N-type calcium channel alpha-1B subunit/Amyloid beta A4 precursor protein-binding family A member 1; type: protein assay; remark: listed apart in the source
[11] = molecular target: T1, Cytochrome P450 3A4; remark: listed apart in the source
[12] = molecular target: Cytochrome P450 2C9 (Homo sapiens, UniProt P11712)
[13] = molecular target: Cytochrome P450 2C19 (Homo sapiens, UniProt P33261); assay: Cytochrome panel assay with activity outcomes. Panel member name: p450-cyp2c19 Compounds with AC50 equal or less than 10 uM are considered active; type: functional; settings: read-out: AC50
[14] = A549 cell cytotoxicity, dose response, cytotoxicity control, plate reader, cherry-pick, antagonist series (AID 743412); type: functional, cell-based
[15] = blockers of bursicon-stimulated LGR2 cAMP reporter – cell-based, HEK293, CRE-luciferase reporter, cherry pick, set 2, dose response (AID 743343); type: functional;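 further: transfected cells were stimulated with diluted bursicon conditioned medium after compound addition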
[16] = blockade of melanocortin 4 receptor signaling – cell-based, plate reader, cherry pick, counter-screen for LGR2 antagonist project, dose response (AID 743444); type: functional;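 further: transfected HEK 293 cells stimulated with alpha-MSH peptide; potency of inhibitors of the alpha-MSH evoked signal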
[17] = molecular target: Paired box protein Pax-8 (Homo sapiens, UniProt Q06710); assay: PAX8 transcriptional activity inhibition in RMG-I – RMG-I cells, luciferase, cherry-pick, dose response (AID 687027); type: functional, cell-based;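 further: luciferase reporter driven by Pax8 target thyroperoxidase promoter measured by SteadyGlo luminescence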
[18] = OVCAR8 cell viability loss – plate reader, dry powder samples, PAX8 project, dose response (AID 743197); type: functional, cell-based; settings: OVCAR-8
[19] = test system: Vero; assay: cells; type: functional, cell-based; settings: Chlorocebus sabaeus
[20] = test system: Vero; assay: cells; type: functional; settings: Chlorocebus sabaeus
[21] = viability of uninfected HEp-2 cells – cell-based, HTS, cytotoxicity control for RSV inhibitor project, dose response (AID 2410); type: functional; settings: human respiratory syncytial virus
[22] = molecular target: T5, Cytochrome P450 1A2 (Homo sapiens, UniProt P05177);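 further: PubChem cytochrome P450 panel assay, CYP1A2 panel member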
T5 sequence (P05177 whole entry): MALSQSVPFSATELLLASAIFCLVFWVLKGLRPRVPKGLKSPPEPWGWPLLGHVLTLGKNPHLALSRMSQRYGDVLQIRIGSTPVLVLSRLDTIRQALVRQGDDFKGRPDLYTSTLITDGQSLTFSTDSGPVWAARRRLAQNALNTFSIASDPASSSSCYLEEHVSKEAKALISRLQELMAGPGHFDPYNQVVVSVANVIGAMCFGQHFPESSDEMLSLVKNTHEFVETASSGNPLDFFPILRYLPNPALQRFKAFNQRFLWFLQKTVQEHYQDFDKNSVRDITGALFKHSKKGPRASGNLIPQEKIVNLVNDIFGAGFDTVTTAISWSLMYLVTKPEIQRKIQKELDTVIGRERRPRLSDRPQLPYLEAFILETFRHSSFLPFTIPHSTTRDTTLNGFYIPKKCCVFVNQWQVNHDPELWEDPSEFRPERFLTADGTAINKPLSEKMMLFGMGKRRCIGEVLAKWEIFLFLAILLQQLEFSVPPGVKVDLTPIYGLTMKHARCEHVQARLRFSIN

Sequence of Eukaryotic translation initiation factor 4E (P63073 whole entry): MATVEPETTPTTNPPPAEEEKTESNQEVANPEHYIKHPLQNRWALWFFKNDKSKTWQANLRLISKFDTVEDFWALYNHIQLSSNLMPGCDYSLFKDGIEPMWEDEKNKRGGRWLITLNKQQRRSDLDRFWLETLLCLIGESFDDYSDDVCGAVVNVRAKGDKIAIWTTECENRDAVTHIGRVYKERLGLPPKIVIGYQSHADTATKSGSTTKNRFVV
Sequence of Estrogen receptor beta (Q92731 whole entry): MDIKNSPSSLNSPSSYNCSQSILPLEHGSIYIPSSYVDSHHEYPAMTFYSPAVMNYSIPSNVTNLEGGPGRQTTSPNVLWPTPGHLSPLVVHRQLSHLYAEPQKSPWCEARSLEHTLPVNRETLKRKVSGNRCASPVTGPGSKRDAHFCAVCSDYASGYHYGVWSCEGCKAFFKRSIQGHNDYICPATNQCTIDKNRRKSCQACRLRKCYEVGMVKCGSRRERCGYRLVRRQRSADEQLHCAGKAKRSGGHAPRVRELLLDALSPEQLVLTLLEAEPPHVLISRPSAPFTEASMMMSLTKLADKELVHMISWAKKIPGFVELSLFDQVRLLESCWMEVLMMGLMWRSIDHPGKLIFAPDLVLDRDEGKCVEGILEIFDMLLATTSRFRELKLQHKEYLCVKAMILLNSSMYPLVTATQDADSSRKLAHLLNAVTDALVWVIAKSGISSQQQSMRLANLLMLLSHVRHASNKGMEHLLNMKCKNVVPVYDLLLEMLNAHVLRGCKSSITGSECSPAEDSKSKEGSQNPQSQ
T1 sequence (P08684 whole entry, the tested form may be a part): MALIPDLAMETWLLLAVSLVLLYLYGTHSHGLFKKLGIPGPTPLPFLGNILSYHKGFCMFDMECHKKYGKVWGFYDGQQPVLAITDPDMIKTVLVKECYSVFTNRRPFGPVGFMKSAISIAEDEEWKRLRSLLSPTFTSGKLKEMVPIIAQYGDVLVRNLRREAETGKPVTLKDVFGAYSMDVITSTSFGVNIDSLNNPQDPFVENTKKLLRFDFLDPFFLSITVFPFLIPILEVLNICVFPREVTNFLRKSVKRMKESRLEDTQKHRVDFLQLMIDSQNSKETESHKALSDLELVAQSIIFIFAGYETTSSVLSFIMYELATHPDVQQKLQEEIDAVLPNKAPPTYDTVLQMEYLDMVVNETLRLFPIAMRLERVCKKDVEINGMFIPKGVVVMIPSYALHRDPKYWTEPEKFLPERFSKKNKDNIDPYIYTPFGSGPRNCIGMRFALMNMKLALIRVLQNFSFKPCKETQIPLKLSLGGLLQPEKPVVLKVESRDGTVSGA
T4 sequence (Q00975 whole entry): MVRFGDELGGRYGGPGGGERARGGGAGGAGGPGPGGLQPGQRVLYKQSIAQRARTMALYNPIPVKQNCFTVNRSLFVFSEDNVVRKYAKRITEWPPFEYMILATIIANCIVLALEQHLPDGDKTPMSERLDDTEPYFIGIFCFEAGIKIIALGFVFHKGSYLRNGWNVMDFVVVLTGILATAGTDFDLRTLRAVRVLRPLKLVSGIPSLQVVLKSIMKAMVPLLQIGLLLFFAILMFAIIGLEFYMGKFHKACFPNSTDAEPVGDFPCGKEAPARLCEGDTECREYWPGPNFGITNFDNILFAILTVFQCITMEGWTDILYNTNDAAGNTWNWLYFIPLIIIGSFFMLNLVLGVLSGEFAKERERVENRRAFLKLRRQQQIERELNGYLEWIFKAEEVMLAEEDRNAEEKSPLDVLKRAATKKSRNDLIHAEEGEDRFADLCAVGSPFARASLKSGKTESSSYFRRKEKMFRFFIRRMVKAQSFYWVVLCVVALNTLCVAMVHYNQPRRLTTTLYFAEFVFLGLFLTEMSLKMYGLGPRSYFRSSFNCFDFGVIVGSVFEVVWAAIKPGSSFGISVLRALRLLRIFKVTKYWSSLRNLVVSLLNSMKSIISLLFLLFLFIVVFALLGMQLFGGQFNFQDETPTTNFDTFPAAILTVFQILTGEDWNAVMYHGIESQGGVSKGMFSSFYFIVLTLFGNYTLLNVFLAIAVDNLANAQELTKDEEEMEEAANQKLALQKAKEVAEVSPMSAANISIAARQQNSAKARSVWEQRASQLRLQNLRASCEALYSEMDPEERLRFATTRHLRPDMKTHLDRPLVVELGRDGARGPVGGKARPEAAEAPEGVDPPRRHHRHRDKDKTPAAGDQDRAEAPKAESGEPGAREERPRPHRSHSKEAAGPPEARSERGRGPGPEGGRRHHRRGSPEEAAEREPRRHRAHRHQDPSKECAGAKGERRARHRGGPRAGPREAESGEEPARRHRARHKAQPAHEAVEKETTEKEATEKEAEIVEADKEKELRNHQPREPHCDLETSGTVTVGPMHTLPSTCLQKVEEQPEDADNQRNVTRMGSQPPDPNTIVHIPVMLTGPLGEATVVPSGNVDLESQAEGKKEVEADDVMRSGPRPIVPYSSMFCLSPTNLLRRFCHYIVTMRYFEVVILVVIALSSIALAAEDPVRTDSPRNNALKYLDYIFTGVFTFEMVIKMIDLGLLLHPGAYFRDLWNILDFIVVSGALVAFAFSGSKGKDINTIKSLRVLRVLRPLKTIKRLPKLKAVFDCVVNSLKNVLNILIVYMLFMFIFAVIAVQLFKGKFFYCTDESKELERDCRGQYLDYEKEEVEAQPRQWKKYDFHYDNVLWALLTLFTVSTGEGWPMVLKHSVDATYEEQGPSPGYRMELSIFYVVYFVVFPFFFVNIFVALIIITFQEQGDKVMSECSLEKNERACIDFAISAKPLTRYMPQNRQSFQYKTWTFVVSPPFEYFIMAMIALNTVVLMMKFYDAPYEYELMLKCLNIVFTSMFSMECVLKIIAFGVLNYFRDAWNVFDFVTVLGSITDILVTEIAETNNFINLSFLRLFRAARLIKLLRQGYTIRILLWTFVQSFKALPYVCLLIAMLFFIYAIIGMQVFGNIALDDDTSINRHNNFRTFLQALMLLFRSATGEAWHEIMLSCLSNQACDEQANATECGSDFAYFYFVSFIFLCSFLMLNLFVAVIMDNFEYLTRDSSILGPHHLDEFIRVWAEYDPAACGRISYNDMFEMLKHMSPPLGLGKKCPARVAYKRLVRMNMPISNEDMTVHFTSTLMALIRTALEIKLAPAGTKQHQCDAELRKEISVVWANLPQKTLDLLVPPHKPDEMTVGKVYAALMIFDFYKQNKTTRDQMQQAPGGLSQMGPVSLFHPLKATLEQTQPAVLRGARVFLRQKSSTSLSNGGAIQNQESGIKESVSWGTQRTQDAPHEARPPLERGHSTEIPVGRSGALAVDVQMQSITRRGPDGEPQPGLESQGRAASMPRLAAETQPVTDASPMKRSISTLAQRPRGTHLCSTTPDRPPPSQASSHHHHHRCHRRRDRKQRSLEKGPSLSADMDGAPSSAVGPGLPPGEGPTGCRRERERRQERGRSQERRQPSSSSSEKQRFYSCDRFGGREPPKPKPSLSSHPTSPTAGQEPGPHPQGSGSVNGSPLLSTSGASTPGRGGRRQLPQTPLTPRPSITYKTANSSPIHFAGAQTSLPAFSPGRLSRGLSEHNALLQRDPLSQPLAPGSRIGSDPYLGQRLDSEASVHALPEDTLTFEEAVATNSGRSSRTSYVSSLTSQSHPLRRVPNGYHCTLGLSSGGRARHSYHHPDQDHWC
T4 sequence (Q02410 whole entry): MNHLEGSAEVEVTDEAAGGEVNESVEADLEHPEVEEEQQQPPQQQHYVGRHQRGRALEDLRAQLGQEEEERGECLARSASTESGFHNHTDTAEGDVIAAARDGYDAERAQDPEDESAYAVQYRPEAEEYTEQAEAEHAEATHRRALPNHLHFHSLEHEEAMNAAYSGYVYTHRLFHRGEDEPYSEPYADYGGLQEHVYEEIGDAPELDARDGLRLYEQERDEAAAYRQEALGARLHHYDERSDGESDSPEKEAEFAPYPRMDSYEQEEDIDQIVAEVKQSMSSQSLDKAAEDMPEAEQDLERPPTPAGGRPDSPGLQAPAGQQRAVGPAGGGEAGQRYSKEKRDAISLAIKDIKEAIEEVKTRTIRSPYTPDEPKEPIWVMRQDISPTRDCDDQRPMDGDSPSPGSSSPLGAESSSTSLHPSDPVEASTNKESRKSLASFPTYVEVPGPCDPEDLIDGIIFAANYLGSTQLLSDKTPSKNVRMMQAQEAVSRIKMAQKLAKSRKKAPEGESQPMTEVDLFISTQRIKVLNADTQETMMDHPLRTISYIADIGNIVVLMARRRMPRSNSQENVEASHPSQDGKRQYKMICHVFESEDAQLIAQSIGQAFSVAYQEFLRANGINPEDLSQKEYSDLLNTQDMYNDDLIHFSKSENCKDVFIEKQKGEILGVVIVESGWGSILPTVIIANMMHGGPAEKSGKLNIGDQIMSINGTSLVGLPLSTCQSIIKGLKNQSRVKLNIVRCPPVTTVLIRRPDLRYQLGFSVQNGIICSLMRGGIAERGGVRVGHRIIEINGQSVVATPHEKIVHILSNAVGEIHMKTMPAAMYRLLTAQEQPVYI
Sequence of Cytochrome P450 2C9 (P11712 whole entry): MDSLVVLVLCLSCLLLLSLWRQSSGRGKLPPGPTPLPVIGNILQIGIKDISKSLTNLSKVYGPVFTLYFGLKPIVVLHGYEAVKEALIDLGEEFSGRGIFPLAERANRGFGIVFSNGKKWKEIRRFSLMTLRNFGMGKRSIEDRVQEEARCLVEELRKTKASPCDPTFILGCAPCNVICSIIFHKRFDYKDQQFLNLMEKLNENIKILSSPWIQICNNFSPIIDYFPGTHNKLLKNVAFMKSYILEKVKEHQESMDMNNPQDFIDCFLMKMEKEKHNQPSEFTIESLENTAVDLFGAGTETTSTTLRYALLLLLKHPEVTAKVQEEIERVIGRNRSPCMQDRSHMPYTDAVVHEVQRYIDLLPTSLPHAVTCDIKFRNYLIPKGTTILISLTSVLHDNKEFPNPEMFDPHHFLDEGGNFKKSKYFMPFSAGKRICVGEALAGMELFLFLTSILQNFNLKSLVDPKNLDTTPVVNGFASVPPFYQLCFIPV

Structure (SMILES): Cc1oc(-c2ccc(Cl)cc2)nc1CN1CCC(C(=O)NCc2ccco2)CC1
- IC50 [1]: > 64 µM (inactive)

Structure (SMILES): COc1ccccc1NC(=O)c1ccc(S(=O)(=O)N(C)C)cc1
- IC50 [1]: > 64 µM (inactive)

Structure (SMILES): N#Cc1ccc(C2=NC(C(F)(F)F)(C(F)(F)F)c3c(n(Cc4ccco4)c(=O)[nH]c3=O)N2)cc1
- AC50 [2]: inconclusive

Structure (SMILES): CC1CCC(C(C)C)C(OC(=O)COC(=O)c2ccc(N)cc2)C1 (stereo unspecified)
- IC50 [1]: > 64 µM (inactive)

Structure (SMILES): CO[C@@H]1CN(C)C(=O)c2cc(NS(=O)(=O)c3cn(C)cn3)ccc2OC[C@@H](C)N(Cc2ccc(C(F)(F)F)cc2)C[C@H]1C
- AC50 [3]: 2.32 µM (active)
- AC50 [4]: 1.91 µM (active)
- AC50 [5]: 4.85 µM (active)

Structure (SMILES): Cc1cccn2c(=O)c3cc(C#N)/c(=N\C(=O)c4ccco4)n(Cc4ccco4)c3nc12
- IC50 [6]: > 80 µM (inactive)

Structure (SMILES): C=CCSc1nc2ccccc2n1Cc1nnc(-c2cccs2)o1
- IC50 [7]: 0.457 µM (active)

Structure (SMILES): O=C(C[n+]1cccc(Br)c1)c1cccs1
- IC50 [7]: 13.2 µM (active)

Structure (SMILES): CC1CCCC(C)N1C(=O)Nc1cccc(Cl)c1 (stereo unspecified)
- IC50 [8]: > 50 µM (not active)

Structure (SMILES): Cc1cc(C(=O)O)ccc1-c1ccc(/C=C2\SC(=O)N(CC(=O)Nc3ccc4c(c3)OCO4)C2=O)o1
- IC50 [9]: 17.5 µM (active)
- IC50 [10]: > 50 µM (inactive)

Structure (SMILES): O=C(CSc1nnc(-c2ccco2)n1Cc1ccco1)NCc1cccs1
- IC50 [7]: 9.55 µM (active)

Structure (SMILES): O=C(CCNS(=O)(=O)c1cccs1)N1CCCCCC1
- IC50 [1]: > 64 µM (inactive)
- AC50 [11]: 20 µM (inconclusive)
- AC50 [12]: 28.2 µM (inconclusive)

Structure (SMILES): C[C@](O)(c1ccccc1)c1nccc2ccccc12
- AC50 [13]: 3.98 µM (inconclusive)
- AC50 [2]: inconclusive

Structure (SMILES): COc1ccc(-c2cn3ccsc3n2)cc1
- IC50 [8]: > 50 µM (not active)

Structure (SMILES): CC(C)CCn1cnc2c(oc3nc4c(cc32)CCCC4)c1=O
- AC50 [14]: > 52 µM (inactive)
- AC50 [15]: 4.92 µM (active)
- AC50 [16]: 3.8 µM (active)

Structure (SMILES): Cc1ccc(S(=O)(=O)N(C)C[C@@H]2OCCCC[C@@H](C)Oc3ccc(NS(=O)(=O)c4ccc(Cl)cc4)cc3C(=O)N([C@H](C)CO)C[C@H]2C)cc1
- AC50 [17]: 4.4 µM (active)
- AC50 [18]: > 70 µM (inactive)

Structure (SMILES): CC(Oc1ccccc1F)C(=O)Nc1ccc2ccccc2c1 (stereo unspecified)
- IC50 [19]: > 6.25 µM (active)

Structure (SMILES): Cc1cc2ccccn2c1C(=O)c1ccc(Cl)cc1
- AC50 [2]: inconclusive

Structure (SMILES): CN1CCN(c2ccc3sc(-n4ccc5ccccc54)nc3c2)CC1
- IC50 [19]: 22.7 µM (active)
- CC50 [20]: > 25 µM (active)

Structure (SMILES): COc1cc2c(cc1NC(=O)c1ccc(C(C)(C)C)cc1)CCCC2
- CC50 [21]: 18.2 µM (active)
- IC50 [19]: 8.78 µM (active)

Structure (SMILES): CC(C)n1cnc2c(C(=O)N[C@H]3CN4CCC3CC4)cc(Cl)cc21
- AC50 [22]: 39.8 µM (inconclusive)
- AC50 [2]: inconclusive

Structure (SMILES): CC(=O)c1ccccc1NS(=O)(=O)c1cccc2nsnc12
- IC50 [6]: 4.66 µM (active)

Structure (SMILES): Cc1ccc(-n2nc(C)c(/C=N/n3c(C)nc4ccccc4c3=O)c2O)cc1
- IC50 [8]: > 50 µM (not active)

Structure (SMILES): O=C(O)c1cccnc1C(=O)O [QUINOLINIC ACID]
- AC50 [2]: inconclusive
